Experimental findings from ChEMBL document CHEMBL1201862, “PubChem BioAssay data set” (2004) are described below.

Some test systems named below: HOP-62; SW-620; OVCAR-3; RXF 393; NCI-H460; MDA-MB-231; PC-3; T47D; HCT-15; SF-539; SK-MEL-28; SF-295; SR; SK-MEL-5; HCT-116; NCI-H226; EKVX; MOLT-4; MCF7; UO-31.
Test in all cases: growth of human tumour cells (NCI), 48 h

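Exposure lasted 48 hours, with cells grown in 96-well plates and compounds tested at five concentrations. The concentration for 50% growth inhibition is given as GI50.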 The source made the active and inactive calls. No stated cut-off is given here; in the data, active = GI50 up to about 1.1 µM and inactive = higher.

`Clc1ccc2[nH]c(CC3CCCC3)nc2c1`: the GI50 was 15.6 µM (inactive) with HOP-62; 22.4 µM (inactive) with SW-620; 6 µM (inactive) in the assay with OVCAR-3; 14.7 µM (inactive) in the assay with RXF 393; 17.6 µM (inactive) with NCI-H460; 17.7 µM (inactive) in the assay on MDA-MB-231. Moreover, the GI50 was 20.1 µM (inactive) in the assay on PC-3; 17.9 µM (inactive) in the assay on T47D; 6.87 µM in the assay on HCT-15; 21.4 µM (inactive) in the assay on SF-539; 22.8 µM (inactive) in the assay with SK-MEL-28; 16.1 µM (inactive) with SF-295. The GI50 with SR was 2.45 µM (inactive); with SK-MEL-5, 11 µM (inactive); in the assay with HCT-116, 16.1 µM (inactive); with NCI-H226, 17.7 µM (inactive); in the assay with EKVX, 17.5 µM (inactive); in the assay with MOLT-4 it was 11 µM (inactive). Also, the GI50 in the assay with MCF7 is 6.61 µM (inactive).
In the case of `CC(C)(CC(O)C#N)/[N+]([O-])=[N+](\[O-])C(C)(C)CC(O)C#N` (stereo not drawn), the GI50 in the assay with HOP-62 was 19.4 µM (inactive); in the assay on SW-620, 12 µM (inactive); in the assay with OVCAR-3, 22.5 µM (inactive); in the assay with RXF 393, 15.9 µM (inactive); in the assay with NCI-H460, 36.1 µM (inactive); with MDA-MB-231, 23.9 µM (inactive). Besides, the GI50 in the assay on PC-3 is 28.2 µM (inactive); with T47D, 27.5 µM (inactive); with HCT-15 it was 15.2 µM; in the assay with SK-MEL-28, 26.6 µM (inactive); with SF-295, 35.7 µM (inactive); with UO-31, 26.9 µM (inactive). For the same compound, the GI50 was 15.2 µM (inactive) with SR; 29.2 µM (inactive) with SK-MEL-5; 15.2 µM (inactive) with HCT-116; 25.6 µM (inactive) in the assay on NCI-H226; 32.6 µM (inactive) in the assay on EKVX; 10.3 µM (inactive) with MOLT-4. In addition, the GI50 in the assay on MCF7 was 20.7 µM (inactive).
Turning to `CC12CCC(C(=O)n3c1nc1ccccc13)C(C)(C)O2` (stereo not drawn), the GI50 in the assay with HOP-62, in the assay with SW-620, in the assay on OVCAR-3, in the assay on RXF 393, with MDA-MB-231 and in the assay with PC-3 was > 100 µM (inactive) in each case. Also, the GI50 with T47D was > 100 µM (inactive); in the assay with HCT-15 it was above 100 µM; with SF-539, > 100 µM (inactive); in the assay with SK-MEL-28, > 100 µM (inactive); with SF-295, > 100 µM (inactive); in the assay with UO-31 it was 75.3 µM (inactive). In addition, the GI50 was > 100 µM (inactive) with SR; 49 µM (inactive) in the assay on SK-MEL-5; > 100 µM (inactive) in the assay on HCT-116; > 100 µM (inactive) in the assay with NCI-H226; > 100 µM (inactive) in the assay on EKVX; > 100 µM (inactive) with MOLT-4. For the same compound, in the assay on MCF7, the GI50 was > 100 µM (inactive).
Regarding `NC1=NC2(COC(c3ccccc3)(c3ccccc3)c3ccccc3)OC(COC(c3ccccc3)(c3ccccc3)c3ccccc3)C(O)C2O1` (stereo not drawn), the GI50 in the assay with HOP-62 is > 100 µM (inactive); in the assay with SW-620, > 100 µM (inactive); with OVCAR-3, > 100 µM (inactive); in the assay with RXF 393, 66.5 µM (inactive); with MDA-MB-231, 67.1 µM (inactive); with PC-3, 11.2 µM (inactive). The GI50 was 53.1 µM (inactive) in the assay on T47D; above 100 µM in the assay with HCT-15; 71.6 µM (inactive) in the assay on SF-539; > 100 µM (inactive) in the assay with SK-MEL-28; 46.5 µM (inactive) in the assay with SF-295; 13.4 µM (inactive) in the assay on UO-31. The GI50 in the assay with SR was 32.9 µM (inactive); in the assay on SK-MEL-5 it was 26.1 µM (inactive); with HCT-116, 38.3 µM (inactive); with NCI-H226 it was 24.2 µM (inactive); in the assay with EKVX it was 16.4 µM (inactive); with MOLT-4, 13.2 µM (inactive). The GI50 with MCF7 is > 100 µM (inactive).
Take `O=C1c2ccccc2C(=O)c2c1oc(=O)c1ccccc21`: the GI50 in the assay on HOP-62 is 8.13 µM (inactive); in the assay with SW-620 it was 2.08 µM (inactive); in the assay on OVCAR-3, 0.698 µM (active); with RXF 393 it was 4.48 µM (inactive); with NCI-H460, 4.38 µM (inactive); with MDA-MB-231 it was 3.74 µM (inactive). For the same compound, the GI50 in the assay with PC-3 is 5.37 µM (inactive); in the assay on T47D, 5.47 µM (inactive); in the assay on HCT-15 it was 3.26 µM; with SF-539, 10.7 µM (inactive); in the assay with SK-MEL-28, 6.5 µM (inactive); in the assay with SF-295 it was 3.83 µM (inactive). The GI50 in the assay with UO-31 was 5.22 µM (inactive); in the assay on SR, 3.75 µM (inactive); in the assay on SK-MEL-5, 1.29 µM (inactive); in the assay with HCT-116, 1.03 µM (active); in the assay with NCI-H226, 8.93 µM (inactive); in the assay on EKVX, 5.77 µM (inactive). The figures for the GI50 with MOLT-4 and with MCF7 were 3.79 µM (inactive) and 2.21 µM (inactive), respectively.
With `CC1CC(C#N)=C2NCCCCN2C1=O` (stereo not drawn), the GI50 in the assay with HOP-62, in the assay on SW-620, in the assay with OVCAR-3, in the assay with RXF 393, in the assay with NCI-H460 and in the assay with MDA-MB-231 was > 100 µM (inactive) in each case. The GI50 in the assay on PC-3 was > 100 µM (inactive); in the assay with T47D, > 100 µM (inactive); in the assay with HCT-15, above 100 µM; in the assay with SF-539, > 100 µM (inactive); in the assay on SK-MEL-28, > 100 µM (inactive); with SF-295 it was > 100 µM (inactive). Further, the GI50 in the assay with UO-31, in the assay with SR, in the assay on SK-MEL-5, in the assay with NCI-H226, in the assay on EKVX and in the assay with MOLT-4 was > 100 µM (inactive) each time. The GI50 in the assay with MCF7 was > 100 µM (inactive).
Consider `CCCN1CCC(=O)N(CCC(F)(F)C(F)(F)C(F)(F)C(F)(F)C(F)(F)C(F)(F)F)C1=S`, for which the GI50 is > 100 µM (inactive) in the assay on HOP-62; > 100 µM (inactive) in the assay on SW-620; > 100 µM (inactive) with OVCAR-3; 99.5 µM (inactive) with RXF 393; > 100 µM (inactive) in the assay on NCI-H460; > 100 µM (inactive) in the assay on MDA-MB-231. The GI50 with PC-3, with T47D, in the assay on SF-539, with SK-MEL-28, in the assay on SF-295 and in the assay on UO-31 was > 100 µM (inactive) throughout. Further, the GI50 in the assay with SR, in the assay on SK-MEL-5, in the assay with HCT-116, in the assay on NCI-H226, in the assay with EKVX and in the assay on MOLT-4 was > 100 µM (inactive) each time. In addition, the GI50 in the assay with MCF7 is > 100 µM (inactive).
`O=C1Nc2cc([N+](=O)[O-])ccc2N/C1=C/C(=O)c1ccc(Cl)cc1`: the GI50 in the assay on SW-620 was 13.9 µM (inactive); in the assay on OVCAR-3, 20.1 µM (inactive); in the assay on RXF 393, 3.39 µM (inactive); in the assay on NCI-H460, 8.34 µM (inactive); in the assay on MDA-MB-231, 5.83 µM (inactive); in the assay on PC-3 it was 16.6 µM (inactive). Further, the GI50 is 13.5 µM (inactive) with T47D; 12.6 µM with HCT-15; 10.7 µM (inactive) in the assay on SF-539; 10.6 µM (inactive) in the assay with SK-MEL-28; 13.3 µM (inactive) in the assay on SF-295; 25.1 µM (inactive) with UO-31. Besides, the GI50 in the assay with SR was 12.2 µM (inactive); with SK-MEL-5 it was 15.9 µM (inactive); with HCT-116, 3.24 µM (inactive); with NCI-H226, 19.5 µM (inactive); with EKVX, 15.7 µM (inactive); in the assay with MOLT-4, 17 µM (inactive). In addition, the GI50 with MCF7 was 11.2 µM (inactive).
